This note sets out measurements from patent publication US8183405B2, “Obovatol derivatives or pharmaceutically acceptable salts thereof, preparation method thereof and pharmaceutical composition for the prevention and treatment of cancer containing the same as an active ingredient” (Korea Research Institute of Bioscience and Biotechnology, priority 2008, dated 2012).

Each structure is given as a SMILES string. A value given as a limit tells only on which side of the number the result lay.

The nature of one data set: Solubility (Table 1). In kind it is physicochemical. Particulars: for Solubility Insoluble: solvents in which the compound is insoluble; for Solubility Soluble: solvents in which the compound is soluble.
For the next data set, the system named is human cancer cell line. The data set can be described thus: Inhibitory effect on growth of cancer cell (WST-1). Format: cell-based. The following applies: for OD: 48 hours, WST-1, absorbance at 450 nm, control OD 0.604. As to the method: The compounds prepared in Examples 1, 2 and 3 were evaluated for inhibitory activity against the growth of a human cancer cell line using WST-1. Human cancer cell lines were incubated in 10% fetal bovine serum (FBS)-supplemented media at 37°C. in a 5% CO2 atmosphere, followed by detaching the cells with 0.05% trypsin-EDTA.
Cells were plated onto […] at a density of 4,000 cells (A549, MDA-MB-231), 5,000 cells (HEK293, NCI-H23) or 6,000 cells (HCA-7, HCT116, SW620, DU145) per well, which were counted using a hematocytometer.
After incubation in 10% FBS-supplemented media at 37°C. for 24 hours in a 5% CO2 incubator, the media was changed with fresh media containing a control (0.1% DMSO) or the compound of Example 1 in an amount of 5, 10, 15, 20, 25 or 30 μg/ml (dissolved in DMSO and diluted in the medium). After 48 hours of treatment, WST-1 (Roche) was added in an amount of 10 μl to each well and incubated for 2 hrs. Absorbance at 450 nm was read in an ELISA reader (Bio-Rad).
For orientation: Tetrazolium dyes change colour on reduction, which living cells bring about.

For data set [1], the system named is colorectal cancer cells (SW620). The data set can be described thus: Apoptotic effect on cancer cells (annexin V-FITC/PI FACS). In kind it is cell-based, human. Particulars: 50 μM, 48 hours, 14.12% at pre-treatment. On the procedure:
Apoptosis was analyzed using flow cytometry. First, colorectal cancer cells (SW620) were treated with 0.1% DMSO (negative control), 0 μM, 30 μM or 50 μM of the compound of Example 1 for 48 hours and detached with 0.05% trypsin-EDTA. After being harvested through centrifugation, the cells were washed twice with PBS (phosphate-buffered saline) and suspended at a density of 1×10^6 cells/ml in a 1× binding buffer (10 mM Hepes/NaOH, pH 7.4, 140 mM NaCl, and 2.5 mM CaCl2). 100 μl of the cell suspension was transferred into a 5 ml culture tube, mixed with 5 μl of annexin V-FITC and 10 μl of PI (propidium iodide), and incubated at room temperature for 15 min in a light-tight condition. Then, 400 μl of 1×binding buffer was added to each tube, followed by FACS analysis for annexin V-FITC-stained cells (Moussa Alkhalaf, Abdulla El-Mowafy, Waleed Renno, Ousama Rachid, Ahmed Ali, and Raja Al-Attyiah, Archives of Medical Research 39, 162-168, 2006).
In FACS plots of FIG. 1, the distribution of stained cells is shown. Cell migration to the second quadrant and the fourth quadrant refers to an increase in chromosome number, meaning an increased number of cells in the G2/M phase or S phase.
The third quadrant and the fourth quadrant of the FACS plot indicate cells expressing the early apoptosis marker annexin V.

Data set [2] can be described thus: Assay for acute oral toxicity in rat. The following applies: SD, in vivo, 500 mg/kg, oral administration, rats. On the procedure:
Specific pathogen free (SPF) SD rats 6 weeks old were used for this assay. The obovatol derivative prepared in Example 1 or 2 was dissolved in distilled water, and the solution was orally administered at a dose of 500 mg/kg to respective groups of two rats.
Autopsies were performed to check for abnormalities of the thoracic and abdominal organs with the naked eye.

Take `C=CCc1ccc(Oc2cc(CC=C)cc(OC(C)=O)c2OC(C)=O)cc1` [Example 3, 1-(4-allylphenoxy)-5-allyl-2,3-diacetyloxybenzene]: in “Solubility (Table 1)”, the “Solubility Insoluble” value is recorded as “Hexane, Water” and the “Solubility Soluble” value is reported as “Alcohol, DMSO”.

In general, LD50 refers to the dose at which mortality reaches 50%. A low value points to a more toxic substance. As to `CCCc1ccc(Oc2cc(CCC)cc(O)c2O)cc1` [Example 1, 3-(4-propylphenoxy)-5-propylbenzene-1,2-diol], the “Solubility Insoluble” value in “Solubility (Table 1)” was “Water”. The “Solubility Soluble” value in “Solubility (Table 1)” is “Alcohol, DMSO”. Also, the OD is listed as 0.592 in the data set with human cancer cell line (5 μg/ml); 0.557 in the data set on human cancer cell line (10 μg/ml); 0.474 in the data set with human cancer cell line (15 μg/ml); 0.247 with human cancer cell line (20 μg/ml); 0.149 with human cancer cell line (25 μg/ml); 0.141 in the data set on human cancer cell line (30 μg/ml). For the same molecule, the “inhibit the growth of cancer cells” value with human cancer cell line (concentration of 20 μg/ml or higher) is recorded as at least 50%. In addition, the “fraction of the cells migrating to the third quadrant (annexin V)” value in data set [1] was 59.58%. The same molecule displayed an LD50 in data set [2] of at least 500 mg/kg.

Regarding `CCCc1ccc(Oc2cc(CCC)cc(OC(C)=O)c2OC(C)=O)cc1` [Example 6, 1-(4-propylphenoxy)-2,3-diacetyloxy-5-propylbenzene], in “Solubility (Table 1)”, the “Solubility Insoluble” value is on record as “Water” and the “Solubility Soluble” value is recorded as “Alcohol, DMSO”.

Consider `CCCc1ccc(Oc2cc(CCC)cc(O)c2OC)cc1` [Example 5, 3-(4-propylphenoxy)-2-methoxy-5-propylphenol], for which, in “Solubility (Table 1)”, the “Solubility Insoluble” value was “Hexane, Water” and the “Solubility Soluble” value is “Alcohol, DMSO”.

As for `C=CCc1ccc(Oc2cc(CC=C)cc(OC(=O)COC)c2OC(=O)COC)cc1` [Example 4, 1-(4-allylphenoxy)-5-allyl-2,3-di-2-methoxyacetyloxybenzene], in “Solubility (Table 1)”, the “Solubility Insoluble” value is listed as “Hexane, Water” and the “Solubility Soluble” value is listed as “Alcohol, DMSO”.

As for `C/C=C/c1ccc(Oc2cc(/C=C/C)cc(OC(=O)COC)c2OC(=O)COC)cc1` [Example 10, 1-(4-((E)-prop-1-enyl)phenoxy)-2,3-di-2-methoxyacetyloxy-5-((E)-prop-1-enyl)benzene], in the data set “Solubility (Table 1)”, the “Solubility Insoluble” value is “Water” and the “Solubility Soluble” value is reported as “Alcohol, DMSO”.

In the case of `C/C=C/c1ccc(Oc2cc(/C=C/C)cc(O)c2O)cc1` [Example 8, 3-(4-((E)-prop-1-enyl)phenoxy)-5-((E)-prop-1-enyl)benzene-1,2-diol], in “Solubility (Table 1)”, the “Solubility Insoluble” value is given as “Water” and the “Solubility Soluble” value is listed as “Alcohol, DMSO”.

With `CCCc1ccc(Oc2cc(CCC)cc(OC(=O)COC)c2OC(=O)COC)cc1` [Example 7, 1-(4-propylphenoxy)-2,3-di-2-methoxyacetyloxy-5-propylbenzene], in “Solubility (Table 1)”, the “Solubility Insoluble” value was “Water” and the “Solubility Soluble” value was “Alcohol, DMSO”.

For `C=CCc1ccc(Oc2cc(CC=C)cc(O)c2OC)cc1` [Example 2, 3-(4-allylphenoxy)-5-allyl-2-methoxyphenol], in the data set “Solubility (Table 1)”, the “Solubility Insoluble” value was “Hexane, Water” and the “Solubility Soluble” value is “Alcohol, DMSO”. The median lethal dose (LD50) in data set [2] was at least 500 mg/kg.

Consider `C/C=C/c1ccc(Oc2cc(/C=C/C)cc(OC(C)=O)c2OC(C)=O)cc1` [Example 9, 1-(4-((E)-prop-1-enyl)phenoxy)-2,3-diacetyloxy-5-((E)-prop-1-enyl) benzene], for which, in “Solubility (Table 1)”, the “Solubility Insoluble” value is “Water” and the “Solubility Soluble” value was “Alcohol, DMSO”.
